Laboratory results from US9096853B2, “Modified siRNA molecules incorporating 5-fluoro-2′-deoxyuridine residues to enhance cytotoxicity” (U.S. Department of Veterans Affairs, priority 2012, dated 2015).
d = 2'-deoxy (DNA); r = 2'-OH (RNA)

What was measured:
[1] = test system: TS mRNA sequence in opposite orientation targeted by the sense (passenger) strand; test: Luciferase assay, vector with TS6 target site for the sense strand; format: cell-based, human; conditions: RKO cells, ssiRNA 0.1 nM, 24 hr
Protocol: FIG. 3 illustrates the effect of 3′-end modification on ssiRNA strand selection. RKO cells were transfected with luciferase vectors (including the TS6 target site for either the antisense (open bars) or sense strand (hatched bars)) in combination with ssiRNAs containing different 3′-end overhangs. After 24 hr, cells were harvested and luciferase activity was determined as described in the Materials and Methods section. Firefly/renilla luciferase activity from vector-alone transfection was normalized to 100%. All values represent the mean±S.D. from at least 4 separate experiments performed in duplicate;
FIGS. 4A-C illustrate the effect of 3′-end dU incorporation on ssiRNA strand selection. RKO cells were transfected with various TS6 ssiRNAs (1 nM) for 6 hr. After an additional 48 hr, cells were harvested for immunoblot (A) and qPCR (B) analysis. (C) Luciferase vectors (containing the siRNA target site for either the sense or antisense strand) were transfected into RKO cells in combination with different ssiRNAs. After 24 hr, cells were harvested and luciferase activity was determined as described in the Materials and Methods section. Luciferase activity from vector-alone transfection was normalized to 100%. All values represent the mean±S.D. from at least 4 separate experiments performed in duplicate;
A DNA oligonucleotide corresponding to the TS6 siRNA target sequence (TS mRNA nt 1058-1077: 5′-[…]-3′- SEQ ID NO: 23) was annealed to its complimentary antisense sequence and ligated into the pGL3-Promoter plasmid (Promega; Madison, WI) at restriction sites Hind III and Nco I. The luciferase mRNA expressed from this plasmid was targeted by the antisense strand of TS6 siRNA. A second plasmid was constructed with the TS mRNA sequence inserted in the opposite orientation so that it could be targeted by the sense or passenger strand of TS6 siRNA. […] After 24 hr, cells were washed with PBS, lysed in 1×PLG buffer, and firefly and renilla luciferase levels were determined by the Dual-Luciferase™ Reporter Assay system (Promega). […]

GC3/TK− cells = test: Cell proliferation (WST-1) in thymidine kinase-deficient GC3/TK− cells; format: cell-based, human; conditions: 6 hr transfection, additional 5 days
Protocol: FIGS. 2A-B illustrate the effect of TK knockdown on the cytotoxicity of the FdU-modified ssiRNA. (A) RKO cells were transfected with 1 nM TK siRNA (lanes 3 and 4) or Mis-dU/dA (lane 5). After 6 hr, the medium was replaced with fresh medium. On the following day, cells were transfected with TS6-FdU/dA ssiRNA (1 nM) for 6 hr (lanes 2, 4, and 5) after which time, cells were harvested for immunoblot analysis. RKO cells were treated with 5-fluorouracil (5 nM) for 6 hr before harvesting (lane 6). (B) GC3/TK− cells were transfected with various concentrations of TS6-dU/dA or TS6-FdU/dA ssiRNA. After 6 hr, the medium was replaced and after an additional 5 days, cell proliferation was determined with the WST-1 assay;
The human colon cancer RKO cell line, originally obtained from ATCC, has been previously well-characterized and was maintained in RPMI-1640 (Invitrogen; Carlsbad, Calif.) with 10% (v/v) dialyzed fetal bovine serum at 37° C. in a humidified incubator with 5% CO2 (Reference 11). The thymidine kinase-deficient GC3/TK− cells were a gift from Dr. Janet Houghton (Reference 18). Cells were routinely authenticated by morphology and growth curve analysis. […]
RKO cells were plated in 96-well plates at a density of 800 cells/well. […] Cell proliferation/viability was quantified by the WST-1 assay (Roche; Indianapolis, Ind.).

[2] = test system: human colon cancer RKO cell line; test: Cell proliferation assay (WST-1) in RKO cells; format: cell-based; conditions: 6 hr exposure then 96 hr growth, mean ± S.D., at least 3 experiments
Protocol: RKO cells were plated in 96-well plates at a density of 800 cells/well. On the following day, cells were incubated with ssiRNA/LF2000 complexes for 6 hr, after which time, the growth medium was replaced, and cells were grown for an additional 96 hr. Similarly, RKO cells were treated with FdU (#F0503, Sigma) for 6 hr followed by medium replacement and then allowed to grow for an additional 96 hr. Cell proliferation/viability was quantified by the WST-1 assay (Roche; Indianapolis, Ind.).

[3] = test system: human colon cancer RKO cell line; test: Clonogenic assay in RKO cells; format: cell-based; conditions: 6 hr exposure, colonies counted after 8 days, mean ± S.D., at least 3 experiments
Protocol: RKO cells were plated in 6-well plates at a density of 600 cells/well. On the following day, cells were transfected with ssiRNA/LF2000 complexes for 6 hr after which time, the growth medium was replaced. Similarly, FdU was added to wells for 6 hr followed by medium replacement. After 8 days, cell colonies were fixed with Trypan blue solution (75% methanol/25% acetic acid/0.25% trypan blue), washed, and air-dried before counting colonies >50 cells.

Substance: TS6-dU/dA: unmodified TS-targeted ssiRNA, 5 dU on 3′-end of sense strand, 5 dA on 3′-end of antisense strand; SEQ ID NO: 3 and 4 (sense GGAUAUUGUCAGUCUUUAGGUUUUU; antisense CCUAAAGACUGACAAUAUCCAAAAA; sense: sugars from the 5' end r20 d5, backbone and T or U not given here; antisense: sugars from the 5' end r20 d5, backbone not given here)
- sense strand targeting, luciferase (in words) [1]: significantly reduced
- IC50 (GC3/TK− cells): 51.4 ± 27.8 nM
- IC50 [2]: 81.9 nM
- IC50 [3]: 1.77 nM
